Measurements published in patent EP2686338B1, “FUNCTIONALIZED BIOMATERIALS FOR TISSUE REGENERATION” (Nanomed3d S.r.l., priority 2011, dated 2018).
“Also recorded” adds a separate entry of the source. Residues, ends and D or L forms follow the SMILES beside them.

Columns and labels:
[1] = system: human NSCs; test: Imaging and cell proliferation (MTS) assay on assembled scaffolds, human NSCs; assay type: cell-based
Protocol: (§1) In vitro tests were performed as previously described (8), in order to assess whether the biomaterials (assembled hydrogels) obtained with the SAPs of the present invention influenced NSCs adhesion, survival and/or differentiation. SAPeptides (30 µl for each well at a concentration of 10 mg/ml) were assembled into 96 multiwells two hours before cell. Cells (at a concentration of 2x10^4 cells/cm^2) were seeded on the top-surface of each assembled scaffold. Initially, cells were cultured with basal medium supplemented with βFGF (10 ng/ml), added to enhance neuronal progeny differentiation. At 3 days in vitro (DIV), βFGF medium was replaced with Leukemia Inhibitory Factor (LIF, Chemicon) (20 ng/ml) and Brain Derived Neurotrophic Factor (BDNF, Peprotech) (20 ng/ml). Fresh medium was added every three days. For both viability and differentiation assays positive and negative controls consisted of Cultrex-BME® substrate (R&D systems) (1:100 dilution in basal medium) and untreated bottom well surfaces respectively. Cell viability was quantified via CellTiter 96® Aqueous Proliferation Assay (Promega) at 7 DIV as recommended in the Promega protocol. After calibrating the linear response between the cell number and absorbance values, proliferated cell populations were quantified (n=5) by using a Vmax microplate reader (Molecular Devices) at 490nm wavelength. Values, reported as means ± standard error of the mean, were blanked to their respective controls consisting of same substrates and cell culture media without cells.

[2] = system: acute contusive spinal cord injury (SCI); test: Acute contusive spinal cord injury model, BBB locomotor rating; assay type: in vivo, Sprague-Dawley rats
Protocol: (§2) 20 female Sprague-Dawley rats weighting 200-250 gr (Charles River Laboratories) were randomly divided into two groups: 1) spinal cord injured animals treated with Ac-FAQ and 2) spinal cord injured animals treated with the saline solution (control group). Rats were anesthetized with an intraperitoneal injection of ketamine (80 mg/kg) and xylazine (10 mg/kg). After laminectomy at the T9-T10 level, the exposed spinal cord was lesioned (Figure 8A1) by a 10-gram rod dropped from a height of 25 mm by using a MASCIS Impactor device (WM Keck Center for Collaborative Neuroscience, Rutgers University), as previously described 33. Immediately after injury, animals were injected with Ac-FAQ (1% acqueous solution) or the saline solution using an Hamilton syringe held via a micromanipulator (Figure 8A2). The biomaterial or the distilled water was delivered into the lesion site at distances of 500 µm, and at each interval two injections of 0,5 µl each were made, for a total dose of 3 µl. After injection, the muscles were sutured and the skin was closed with wound clips. […]
Hindlimb recovery was assessed by using the Basso, Beattie, Bresnahan (BBB) Locomotor Rating Scale. Starting from 1 week post-injury, every 3-4 days each rat was observed and recorded with a digital video camera for 4 min in an open field. Rats were evaluated in double-blind experimental settings. […]

[3] = system: acute contusive spinal cord injury (SCI); test: Acute contusive spinal cord injury model, histology and morphometrical quantification; assay type: in vivo, Sprague-Dawley rats; details: 8 weeks after injury
Protocol: as §2
Quantitative analysis was performed on longitudinal sections of rat spinal cords, spanning between T7 and T12 and including the injury site (T9-T10).
The presence of axons expressing Gap-43 and βIII within the cyst was investigated. Gap-43 positive fibers were quantified and the relative value of GAP-43 immunopositive area was expressed as percentage of the total cyst area.
Injured tissue was quantified in seven-to-sixteen longitudinal sections per animal, depending on the cyst extent. […] Sections were stained with hematoxylin/eosin and images were captured (Axioplan2 Zeiss microscope) at 5x magnification, then single images were merged, converted into binary pictures and cavities into the injured area were quantified via Image J software (http://rsb.info.nih.gov/ij/). We measured also the whole injured tissue size. […]
Axon regeneration/sprouting, into the cyst area, was quantified on six longitudinal sections (spaced 160 µm) per animal via GAP-43 (1:200, Millipore) and Cy3-conjugated antibodies (1:1000, Jackson). […]

[4] = system: murine NSCs; test: Immunofluorescence of differentiated NSC progeny on scaffolds, murine NSCs; assay type: cell-based; details: 1% scaffold; compared to Cultrex positive control
Protocol: as §1
(§3) Immunofluorescence tests were performed for assaying the phenotypes of the differentiated human and murine NSC progenies. In the case of KLP and Ac-KLP just murine NSC have been used. Ac-KLP and KLP scaffolds were prepared at different concentrations in order to display three different stiffness values (viz. 100, 500 and 1000 Pa). This was done to assess the influence of scaffold concentration (and consequently its stiffness) over NSC differentiation. All the other peptides were tested at 1% v/w concentration instead. The following antibodies were used: rabbit polyclonal against GFAP (1:500, DakoCytomation) for astrocytes, mouse monoclonal against βIII-Tubulin (1:500, Covance) for neurons, mouse monoclonal against GalC (1:200, Chemicon) and O4 (1:200, Chemicon) for oligodendrocyes. Secondary Abs were Goat anti Mouse Alexa 488 (1:1000, Molecular Probes), Goat anti Mouse Cy3 (1:1000, Jackson Immunoresearch), Goat anti Rabbit Cy3 (1:1000, Jackson Immunoresearch). Cell nuclei were counterstained with DAPI (Molecular Probes). Quantitative analyses were performed by counting 100-300 cells for each of 9 randomly chosen fields over a total of 3 independent experiments. Phase contrast and fluorescence images of the adhering cells were acquired via Zeiss microscopes Axioplan 2 and ApoTome System at one week after seeding.

[5] = system: human NSCs; test: Immunofluorescence of differentiated NSC progeny on scaffolds, human NSCs; assay type: cell-based; details: 1% scaffold; compared to Cultrex positive control
Protocol: as §1
as §3, with “Cell nuclei were counterstained with DAPI (Molecular Probes).” left out

[6] = system: murine NSCs; test: Imaging and cell proliferation (MTS) assay on assembled scaffolds, murine NSCs; assay type: cell-based
Protocol: as §1

[7] = Rheology (frequency, time and strain sweeps); assay type: physicochemical
Protocol: Rheological properties of the self-assembling peptides of the invention were determined using a controlled stress TA Instruments AR-2000ex rheometer (TA Instruments). A cone-and-plate geometry (acrylic cone diameter, 20 mm; angle, 1°; truncation gap 34 µm) was used. Preliminary strain sweeps were performed for each sample to define the linear viscoelastic region, thus ensuring that moduli were independent of strain. Time sweeps, after addition of PBS (1x) were recorded at 25 C (angular frequency ω=1 Hz) and continued till G' plateaued. Frequency sweeps, both for peptide water solutions and for self-assembled scaffolds, were performed at 25 C with the instrument in oscillatory mode at controlled strain of 1 %. Final strain sweeps was performed at 1Hz oscillatory frequency and at 25 C: onset point of failure was calculated by linear interpolation and subsequent determination of the intersection of the G' modes within the linear region and at material failure respectively.

CC(=O)N[C@@H](Cc1ccccc1)C(=O)N[C@@H](C)C(=O)N[C@@H](CCC(N)=O)C(=O)N[C@@H](CCCNC(=N)N)C(=O)N[C@H](C(=O)N1CCC[C@H]1C(=O)N1CCC[C@H]1C(=O)NCC(=O)NCC(=O)NCC(=O)N[C@@H](CC(C)C)C(=O)N[C@@H](CC(=O)O)C(=O)N[C@@H](CC(C)C)C(=O)N[C@@H](CCCCN)C(=O)N[C@@H](CC(C)C)C(=O)N[C@@H](CC(=O)O)C(=O)N[C@@H](CC(C)C)C(=O)N[C@@H](CCCCN)C(=O)N[C@@H](CC(C)C)C(=O)N[C@@H](CC(=O)O)C(=O)N[C@@H](CC(C)C)C(=O)N[C@@H](CCCCN)C(N)=O)C(C)C [Ac-FAQ, Ac-FAQRVPP-GGG-LDLKLDLKLDLK-CONH2] (Ac-FAQRVPPGGGLDLKLDLKLDLK-NH2)
cell morphology, adhesion and spreading ([1]; 7 DIV on assembled hydrogels): spread and branched cells | cell viability (MTS, cell population) ([1]; 7 DIV, scaffolds 10 mg/ml, vs control, P<0.03, n=5): cell population was bigger | BBB score ([2]; 1% aqueous solution, 3 µl into lesion site right after injury, week 6,7 and 8 after injury, mean ± SEM): 11.95 ± 0.30 | hindlimb motor recovery in comparison to controls ([2]; BBB scale, from week 6 after injury, p<0.05): significant improvement; also recorded: significantly improved locomotor recovery | Average cumulative cyst area ([3]; hematoxylin/eosin longitudinal sections, not significant vs controls): 28.30 ± 6.70 mm^2 | cavities size within the cyst, excluding strands of trabeculae ([3]; not significant vs control): 16.77 ± 4.50 mm^2 | average immunopositivity for GAP-43 ([3]; p<0.05 vs saline-injected controls): 15.46 ± 1.94 % of the whole cyst area | number of neurons [4]: significantly higher | number of oligodendrocytes [4]: significantly higher | number of neurons [5]: significantly higher | number of oligodendrocytes [5]: significantly higher | cell morphology, adhesion and spreading ([6]; 7 DIV on assembled hydrogels): spread and branched cells | cell viability (MTS, cell population) ([6]; 7 DIV, scaffolds 10 mg/ml, vs control, P<0.005, n=5): cell population was bigger | G' pre-assembling ([7]; average storage modulus of SAPeptide solution, 1% w/v, 1-100 Hz, before PBS): 5.11 Pa | G' post-assembling ([7]; average storage modulus of jellified scaffold, 1% w/v, 1-100 Hz, after PBS): 551.9 Pa | Onset point (% strain) ([7]; strain percentage at rupture, strain sweep at 1 Hz, 25 C): 22.75%
